This is an account of results in doi:10.1101/350942v2 (biorxiv, 2018).

The target of the assay is Tv2483 (Treponema vincentii, UniProt S3MDF0, R115A). Briefly: biochemical.

Regarding `N=C(N)NCCC[C@H](N)C(=O)O` [L-arginine], the Kd came out at 6.3 µM.
